Test results reported in publication PMC7367283, “A PIP2 substitute mediates voltage sensor-pore coupling in KCNQ activation” (Communications Biology, 2020).

Molecular target: hERG (Homo sapiens, UniProt Q12809)
Assay: Two-electrode voltage clamp of hERG in Xenopus oocytes
Type: cell-based
Conditions: 10 µM CP1
Source text: Since CP1 has a similar effect to PIP2 in mediating VSD-pore coupling in KCNQ channels, we tested if CP1 has effects on other ion channels that are also sensitive to PIP2 or are voltage activated and share general structural features of the VSD and the pore with KCNQ. […] On the other hand, NaV1.5 and KV4.2 are voltage-gated ion channels.
Fig. 6 Effects of CP1 on other ion channels expressed in Xenopus oocytes. a Currents of Kir1.1, CaV1.2, NaV1.5, hERG, and KV4.2 before and after application of 10 µM CP1, respectively. The voltages for holding, test, and returning pulses were Kir1.1, 0 mV, −100 to +60 mV, 0; CaV1.2, −100 mV, −100 to +60, −100 mV; NaV1.5, −100, −120 to +40 mV, −120 mV; […]; KV4.2, −80 mV, −100 mV to +80 mV, −40 mV; HCN4, −30 mV, −30 to −140 mV, −120 mV. b Current–voltage relations of Kir1.1 channel in the absence or presence of 10 µM CP1 (n = 7). c–g G–V relations of indicated channels with and without 10 µM CP1. The ΔV1/2 of G–V relations (mV) are CaV1.2, 3.38 ± 0.71 mV (c); NaV1.5, −2.26 ± 0.95 mV (d); hERG, 6.85 ± 1.81 mV (e); KV 4.2, −2.26 ± 2.88 mV (f); HCN4, 17.13 ± 1.59 mV (g).
Complementary DNA (cDNA) encoding human KCNQ1 (UniProtKB/Swiss‐Prot under accession no. P51787), KCNQ2 (O43526), KCNQ3 (O43525), KCNE1 (P15382), Kir1.1 (P48048), hERG (Q12809), KV4.2 (Q63881), NaV1.5 (Q14524), NaV β1 (Q07699), CaV1.2 (Q13936), CaV β1a (Q02641), CaV α2/δ1 (P54289), and HCN4 (Q9Y3Q4) were subcloned into oocyte expression vectors, respectively. Site-directed mutations of the KCNQ1 channel were all produced by overlap extension polymerase chain reaction (PCR) with high-fidelity Pfu polymerase (Stratagene, CA). The presence of the desired mutation was verified by sequencing the PCR-amplified regions. All the primer sequences used in this study are available in Supplementary Table 1. The complementary RNA (cRNA) of all these channels and mutations was transcribed in vitro with the T3, T7, or SP6 polymerase mMessage mMachine kit (Invitrogen, Thermo Fisher Scientific, MO).
The whole-oocyte ionic currents were recorded with a GeneClamp 500B amplifier (Axon Instruments, CA) or iTEV90 amplifier (HEKA, Germany) and then sampled at 1 kHz and low-pass-filtered at 2 kHz. The Patchmaster software (HEKA, Germany) was used to acquire data. The Kir1.1 current was recorded with a high K^+ bath solution containing (in mM) 96 KCl, 4 NaCl, 1 CaCl2, 2 MgCl2, and 10 HEPES, pH 7.3–7.4. The HCN4 current was recorded in ND66 solution containing (in mM) 66 NaCl, 32 KCl, 1.8 CaCl2, 1 MgCl2, and 5 HEPES, pH 7.6. All the other potassium channels were recorded in ND96 solution. The currents of CaV1.2 channel were recorded in 40 mM Ba^2+ bath solution containing (in mM) 40 Ba(OH)2, 50 TEA-OH, 2 KOH, and 5 HEPES, adjusted to pH 7.4 with methanesulfonic acid. CP1 (DISODIUM 5-BROMO-2-[9-CHLORO-3-(SULFONATOOXY) NAPHTHO [1,2-B] THIEN-2-YL]-1H-INDOL-3-YL SULFATE, Sigma-Aldrich, MO) and Chromanol 293B (Sigma-Aldrich, MO) were dissolved in bath solutions. All the chemicals were purchased from Sigma-Aldrich. To measure the I–V relations of the Kir1.1 channel, the test voltage was set from −100 to +60 mV for 1 s with 20-mV increments. The test pulses were stepped from a holding potential of 0 mV and then stepped back to 0 mV. The HCN4 currents were recorded by a test pulse between −30 and −140 mV in 10-mV step from a holding potential of −30 mV. For all the other potassium channels and CaV1.2 channel, the holding potential was −80 or −100 mV, and the test pulse was applied with 10-mV increment, which was followed with a repolarization pulse at −40 mV before returning to the holding potential. The durations of test and the repolarization pulse vary for different channels to allow the activation and deactivation of the channel to reach their steady states.

Sequence of hERG (Q12809 whole entry): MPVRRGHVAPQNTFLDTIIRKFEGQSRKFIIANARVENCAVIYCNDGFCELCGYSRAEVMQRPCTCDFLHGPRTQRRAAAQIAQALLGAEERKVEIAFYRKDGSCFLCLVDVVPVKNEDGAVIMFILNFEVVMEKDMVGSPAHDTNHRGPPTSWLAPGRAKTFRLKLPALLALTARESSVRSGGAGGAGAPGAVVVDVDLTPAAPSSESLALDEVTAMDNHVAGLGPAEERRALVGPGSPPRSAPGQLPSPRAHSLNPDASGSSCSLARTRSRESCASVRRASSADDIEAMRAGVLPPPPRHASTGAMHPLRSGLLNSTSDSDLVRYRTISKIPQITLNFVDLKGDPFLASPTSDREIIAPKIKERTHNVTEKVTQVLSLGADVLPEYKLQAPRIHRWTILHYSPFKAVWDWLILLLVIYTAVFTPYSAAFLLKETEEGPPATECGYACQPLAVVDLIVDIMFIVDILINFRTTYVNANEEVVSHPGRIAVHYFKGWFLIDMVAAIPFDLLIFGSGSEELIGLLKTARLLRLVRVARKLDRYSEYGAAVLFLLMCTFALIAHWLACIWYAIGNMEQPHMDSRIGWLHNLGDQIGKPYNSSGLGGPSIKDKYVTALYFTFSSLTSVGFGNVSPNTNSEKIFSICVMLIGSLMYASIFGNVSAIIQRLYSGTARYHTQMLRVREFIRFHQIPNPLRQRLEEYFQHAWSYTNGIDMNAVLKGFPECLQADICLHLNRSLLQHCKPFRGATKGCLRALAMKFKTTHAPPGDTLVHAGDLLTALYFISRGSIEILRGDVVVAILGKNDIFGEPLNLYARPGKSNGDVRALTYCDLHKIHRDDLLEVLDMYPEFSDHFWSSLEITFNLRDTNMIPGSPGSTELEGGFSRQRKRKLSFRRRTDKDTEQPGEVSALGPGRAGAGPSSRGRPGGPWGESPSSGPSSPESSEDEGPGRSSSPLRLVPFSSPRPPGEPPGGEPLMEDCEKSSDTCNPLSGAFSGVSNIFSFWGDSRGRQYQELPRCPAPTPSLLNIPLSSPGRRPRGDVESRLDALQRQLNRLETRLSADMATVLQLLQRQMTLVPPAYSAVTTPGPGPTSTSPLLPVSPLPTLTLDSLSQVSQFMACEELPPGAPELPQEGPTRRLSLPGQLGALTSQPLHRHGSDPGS

In the case of `O=S(=O)([O-])Oc1c(-c2sc3c(ccc4cccc(Cl)c43)c2OS(=O)(=O)[O-])[nH]c2ccc(Br)cc12.[Na+].[Na+]` [CP1, DISODIUM 5-BROMO-2-[9-CHLORO-3-(SULFONATOOXY) NAPHTHO [1,2-B] THIEN-2-YL]-1H-INDOL-3-YL SULFATE], the “ΔV1/2 of G–V relations” value was 6.85 ± 1.81 mV, the “G/Gmax Mean (Fig. 6e)” value (voltage 0 mV) was 0.8601 and the “G/Gmax Mean (Fig. 6e)” value (voltage 10 mV) was 0.9576. For the same compound, the “G/Gmax Mean (Fig. 6e)” value (voltage 20 mV) was 1.0000, the “G/Gmax Mean (Fig. 6e)” value (voltage 30 mV) was 0.9916 and the “G/Gmax Mean (Fig. 6e)” value (voltage 40 mV) was 0.9932. For the same compound, the “G/Gmax Mean (Fig. 6e)” value (voltage 50 mV) was 0.9886, the “G/Gmax Mean (Fig. 6e)” value (voltage 60 mV) was 0.9837 and the “G/Gmax Mean (Fig. 6e)” value (voltage -10 mV) was 0.6448. The “G/Gmax Mean (Fig. 6e)” value (voltage -20 mV) was 0.3564, the “G/Gmax Mean (Fig. 6e)” value (voltage -30 mV) was 0.1368 and the “G/Gmax Mean (Fig. 6e)” value (voltage -40 mV) was 0.0404. The “G/Gmax Mean (Fig. 6e)” value (voltage -50 mV) was 0.0144, the “G/Gmax Mean (Fig. 6e)” value (voltage -60 mV) was 0.0098 and the “G/Gmax Mean (Fig. 6e)” value (voltage -70 mV) was 0.0091. The “G/Gmax Mean (Fig. 6e)” value (voltage -80 mV) was 0.0089, the “G/Gmax Mean (Fig. 6e)” value (voltage -90 mV) was 0.0084 and the “G/Gmax Mean (Fig. 6e)” value (voltage -100 mV) was 0.0080. For the same compound, the “G/Gmax Mean (Fig. 6e)” value (voltage -110 mV) was 0.0069 and the “G/Gmax Mean (Fig. 6e)” value (voltage -120 mV) was 0.0065.
